These results are taken from US20220194936A1, “CRYSTALLINE FORMS OF N-(5-(5-((1R,2S)-2-FLUOROCYCLOPROPYL)-1,2,4-OXADIAZOL-3-YL)-2-METHYLPHENYL)IMIDAZO[1,2-A]PYRIDINE-3-CARBOXAMIDE” (Novartis AG, priority 2019, published 2022).

Each structure is given as a SMILES string.

Type in all cases: physicochemical
Data set [1] can be described thus: Evaluation of Xenon light exposure (HPLC, XRPD, color). Conditions: Xenon light (approx. 1200 kLuxh, 25° C.). The protocol: 5-(5-((1R,2S)-2-fluorocyclopropyl)-1,2,4-oxadiazol-3-yl)-2-methylphenyl)imidazo[1,2-a]pyridine-3-carboxamide Form A (10 mg) was placed in a container and exposed to approximately 1200 kLuxh of Xenon light at 25° C. The sample was examined by XRPD for physical stability determination and by HPLC for chemical stability determination indicated by the presence of degradation products (DP). The HPLC method used is described in Example 13-1. The color (CL) of the samples was evaluated by visual observation.
5-(5-((1R,2S)-2-fluorocyclopropyl)-1,2,4-oxadiazol-3-yl)-2-methylphenyl)imidazo[1,2-a]pyridine-3-carboxamide Fumaric acid co-crystal (10 mg) was placed in a container and exposed to approximately 1200 kLuxh of Xenon light at 25° C. The sample was examined by XRPD for physical stability determination and by HPLC for chemical stability determination indicated by the presence of degradation products (DP). The HPLC method used is described in Example 19-1. The color (CL) of the samples was evaluated by visual observation.

A short description of data set [2]: Evaluation of closed container thermal degradation (solid state, 1 week; HPLC, XRPD, color). Conditions: tight container; for Bulk (XRPD): 50° C. and 80° C. The protocol: 5-(5-((1R,2S)-2-fluorocyclopropyl)-1,2,4-oxadiazol-3-yl)-2-methylphenyl)imidazo[1,2-a]pyridine-3-carboxamide Form A (10 mg) was placed in a closed vial at 50° C. and 80° C. chamber for 1 week. The initial purity of (5-(5-((1R,2S)-2-fluorocyclopropyl)-1,2,4-oxadiazol-3-yl)-2-methylphenyl)imidazo[1,2-a]pyridine-3-carboxamide Form A was 99.7%.
The samples were examined by XRPD for physical stability determination and by HPLC for chemical stability determination indicated by the presence of degradation products (DP).
The HPLC method used is described in Example 13-1. The color (CL) of the samples was evaluated by visual observation.
(5-(5-((1R,2S)-2-fluorocyclopropyl)-1,2,4-oxadiazol-3-yl)-2-methylphenyl)imidazo[1,2-a]pyridine-3-carboxamide fumaric acid co-crystal (10 mg) was placed in a closed vial at 50° C. and 80° C. chamber for 1 week. The initial purity of (5-(5-((1R,2S)-2-fluorocyclopropyl)-1,2,4-oxadiazol-3-yl)-2-methylphenyl)imidazo[1,2-a]pyridine-3-carboxamide Fumaric acid co-crystal was 99.7%.
The HPLC method used is described in Example 19-1. The color (CL) of the samples was evaluated by visual observation.

A short description of data set [3]: Crystal modification after equilibration in water for 2 weeks (XRPD). Conditions: after 2 weeks in water. How it is done:
5-(5-((1R,2S)-2-fluorocyclopropyl)-1,2,4-oxadiazol-3-yl)-2-methylphenyl)imidazo[1,2-a]pyrindine-3-carboxamide Form A (10 mg) was placed in a vial containing water for 2 weeks and the sample was then examined by XRPD for physical stability determination. It was observed that after 2 weeks in water 5-(5-((1R,2S)-2-fluorocyclopropyl)-1,2,4-oxadiazol-3-yl)-2-methylphenyl)imidazo[1,2-a]pyridine-3-carboxamide Form A converted to 5-(5-((1R,2S)-2-fluorocyclopropyl)-1,2,4-oxadiazol-3-yl)-2-methylphenyl)imidazo[1,2-a]pyridine-3-carboxamide Form HB.
5-(5-((1R,2S)-2-fluorocyclopropyl)-1,2,4-oxadiazol-3-yl)-2-methylphenyl)imidazo[1,2-a]pyrindine-3-carboxamide Fumaric acid co-crystal (10 mg) was placed in a vial containing water for 2 weeks and the sample was then examined by XRPD for physical stability determination. No change in XRPD was observed after 2 weeks in water.

Turning to `Cc1ccc(-c2noc([C@H]3C[C@@H]3F)n2)cc1NC(=O)c1cnc2ccccn12` [fumaric acid co-crystal, N-(5-(5-((1R,2S)-2-fluorocyclopropyl)-1,2,4-oxadiazol-3-yl)-2-methylphenyl)imidazo[1,2-a]pyridine-3-carboxamide fumaric acid co-crystal], the “Bulk (XRPD)” value in data set [1] and in data set [2] was “Bulk (XRPD): No change” in each case. Besides, the “CL (color)” value in data set [1], in data set [2] (50° C.) and in data set [2] (80° C.) was “No change” each time. The “DP (%) degradation products, Bulk (HPLC)” value in data set [1] is given as 0.10%; in data set [2] (50° C.) it was 0.15%; in data set [2] (80° C.) it was 0.08%. Further, the “Crystal modification by XRPD” value in data set [3] was “No change”.

With `Cc1ccc(-c2noc([C@H]3C[C@@H]3F)n2)cc1NC(=O)c1cnc2ccccn12` [Form A, N-(5-(5-((1R,2S)-2-fluorocyclopropyl)-1,2,4-oxadiazol-3-yl)-2-methylphenyl)imidazo[1,2-a]pyridine-3-carboxamide], the “Bulk (XRPD)” value in data set [1] and in data set [2] was “Bulk (XRPD): No change” in each case. Also, the “CL (color)” value in data set [1], in data set [2] (50° C.) and in data set [2] (80° C.) was “No change” each time. The “DP (%) degradation products, Bulk (HPLC)” value in data set [1] was 0.06%; in data set [2] (50° C.), 0.06%; in data set [2] (80° C.) it was 0.07%. For the same compound, the “Crystal modification by XRPD” value in data set [3] was “Form HB”.
